Test results as given in patent publication US7807877B2, “Genetic sequences having methyltransferase activity and uses therefor” (International Flower Developments Pty. Ltd., priority 2002, dated 2010).
Several values for one entry are separate records, joined by “and”; a condition that tells them apart may be missing. Identical values can stand only once. Each block holds one molecule with its values, some of them ahead of it.

Key:
[1] = Reconstruction experiments: anthocyanins added to petal juice of Medeo roses; type: physicochemical, Rosa hybrida
Protocol: The rose cultivar Medeo generally produces cream-colored to pale apricot flowers (RHSCC 158C to 159A). […] The estimated vacuolar pH of Medeo petals is around 4.6. The petal juice of Medeo roses was extracted by grinding one petal with 50 μL of water using a mortar and pestle. The petal juice was collected and mixed with 10-20 μL of 1-2 mg/g delphinidin 3-glucoside, delphinidin 3,5-diglucoside and malvidin 3,5-diglucoside. The colors observed were described according to the Royal Horticultural Society Color Charts (RHSCC) (The Royal Horticultural Society, London) (Table 8).

[2] = test system: Petunia FMT (E20); experiment: HPLC assay of methyltransferase activity, E. coli extract containing pCGP3086; type: biochemical, Petunia hybrida
Protocol: (§1) The assay reactions were incubated at 30° C. for 30 minutes. Fifty microlitres of a chloroform mix (CHCl3:methanol/1% HCl, 2:1) was added and the mixture was then vortexed to stop the reactions. The phases were separated by centrifugation at 13,000 rpm for 5 minutes and 50 μL of the upper phase was transferred into a clean tube and the contents subsequently hydrolysed by the addition of 12.5 μL of 10M HCl. The tube was then placed in a boiling waterbath for 30 minutes and the contents subsequently desiccated under vacuum. The residue was resuspended in 2-3 μL of methanol/1% HCl and spotted onto a TLC plate alongside standard samples of petunidin, malvidin and delphinidin. The anthocyanidins were separated in a Forestal system (HOAc:water:HCl; 30:10:3) (Markham, Techniques of flavonoid identification, Academic Press, London, 1982) and the TLC was exposed to an autoradiographic film (Kodak) for 16 hours at −70° C.
(§2) Anthocyanidins in the reaction mixture were analysed by HPLC via gradient elution using gradient conditions of 50% B to 60% B over 10 minutes, then 60% B for 10 minutes and finally 60% B to 100% B over 5 minutes where solvent A consisted of TFA:H2O (5:995) and solvent B consisted of acetonitrile:TFA:H2O (500:5:495). An Asahi Pac ODP-50 cartridge column (250 mm×4.6 mm ID) was used for the reversed phase chromatographic separations. […].
(§3) The enzyme activities of the peptides encoded by Petunia and Torenia FMT cDNA clones in pCGP3086 and pCGP3090, respectively were further assessed using the substrates delphinidin 3-glucoside and delphinidin 3-rutinoside and delphinidin 3,5-diglucoside under assay conditions as previously described (Table 15, Example 9) except that the ^14C-labelled SAM was replaced with non radioactive SAM at 2 mg/mL and the substrates (delphinidin 3-glucoside and delphinidin 3-rutinoside and delphinidin 3,5-diglucoside) at 2 mg/mL.

[3] = test system: Torenia FMT (TFMT); experiment: HPLC assay of methyltransferase activity, E. coli extract containing pCGP3090; type: biochemical, Torenia hybrida
Protocol: as §1, §2, §3

[4] = test system: rose petals; experiment: Incubation of excised rose petal segments with precursors or end products; type: cell-based, Rosa hybrida; conditions: 1-2 mg/mL, around 16 hours
Protocol: To determine whether rose petals contained the enzymes necessary for conversion of dihydromyricetin to delphinidin, precursor-feeding experiments with dihydromyricetin were initiated.
Petal segments of a selection of commercial cultivars of roses (Toplesse, Lambada, Medeo, Pamela, Sonia, Oceana, Mystique) were placed in solutions of 1-2 mg/mL dihydromyrectin or water only and incubated for around 16 hours in a growth room at a temperature of around 23° C. Pink/purple colors were observed near the cut edges of the petals (Table 6).
Petal segments of roses were placed in solutions of 1-2 mg/mL malvidin 3,5-diglucoside, 1-2 mg/mL dihydromyrectin or water only and incubated for around 16 hours in a growth room at a temperature of around 23° C. The production of colors in the purple range were observed near the cut edges of the petals upon incubation with dihydromyrectin or malvidin 3,5-diglucoside (Table 7).

[5] = pCGP3086 (PFMT), percentage of total anthocyanidins, duplicate a/b, listed as D3, 5G
[6] = pCGP3090 (TFMT), percentage of total anthocyanidins, duplicate a/b
[7] = pCGP3090 (TFMT), percentage of total anthocyanidins, duplicate a/b, listed as D3, 5G
[8] = pCGP3090, substrate 2 mg/mL, SAM 2 mg/mL, duplicate a/b
[9] = pCGP3090, substrate 2 mg/mL, SAM 2 mg/mL, duplicate a/b, listed as D3, 5G

COLOR ([1]; pH 4.6): violet
RHSCC# ([1]; pH 4.6): 88A
COLOR ([1]; pH 4.9): violet
RHSCC# ([1]; pH 4.9): 88A
SMILES: OC[C@H]1O[C@@H](Oc2cc3c(O[C@@H]4O[C@H](CO)[C@@H](O)[C@H](O)[C@H]4O)cc(O)cc3[o+]c2-c2cc(O)c(O)c(O)c2)[C@H](O)[C@@H](O)[C@@H]1O [D35G, delphinidin 3,5-diglucoside]
product of flavonoid methyltransferase activity with the substrate ([2]; Petunia FMT (E20) in pCGP3086, to a lesser degree malvidin): predominantly petunidin
Predominant FMT Activity ([2]; pCGP3086): 3′FMT
% of anthocyanidin detected peo ([2]; pCGP3086 (PFMT), percentage of total anthocyanidins, duplicate a/b): 0.0%
% of anthocyanidin detected cya [2, 5]: 0.0% and 2.2%
% of anthocyanidin detected del [2, 5]: 45.6% and 55.9%
% of anthocyanidin detected mal [2, 5]: 11.0% and 6.0%
% of anthocyanidin detected pet [2, 5]: 43.4% and 35.9%
Anthocyanidins (mg/g) Peo ([2]; pCGP3086, substrate 2 mg/mL, SAM 2 mg/mL, duplicate a/b): 0 mg/g
Anthocyanidins (mg/g) Mal ([2]; pCGP3086, substrate 2 mg/mL, SAM 2 mg/mL, duplicate a/b, listed as D3, 5G): 0.7 mg/g and 1.1 mg/g
product of flavonoid methyltransferase activity with the substrate ([3]; Torenia FMT in pCGP3090, to a lesser degree petunidin): predominantly malvidin
Predominant FMT Activity ([3]; pCGP3090): 3′5′FMT
% of anthocyanidin detected cya [3, 6]: 0.0%
% of anthocyanidin detected peo [3, 6]: 0.0%
% of anthocyanidin detected del [3, 7]: 22.9% and 28.9%
% of anthocyanidin detected mal [3, 7]: 70.0% and 66.9%
% of anthocyanidin detected pet [3, 7]: 7.1% and 4.3%
Anthocyanidins (mg/g) Cya [3, 8]: 0 mg/g
Anthocyanidins (mg/g) Peo [3, 8]: 0 mg/g
Anthocyanidins (mg/g) Mal [3, 9]: 7.3 mg/g and 12.4 mg/g
Anthocyanidins (mg/g) Pet [3, 9]: 0.7 mg/g and 0.8 mg/g

SMILES: COc1cc(-c2[o+]c3cc(O)cc(O[C@@H]4O[C@H](CO)[C@@H](O)[C@H](O)[C@H]4O)c3cc2O[C@@H]2O[C@H](CO)[C@@H](O)[C@H](O)[C@H]2O)cc(OC)c1O [M35G, malvidin 3,5-diglucoside]
Color at cut edge after incubation with malvidin ([4]; rose cultivar Lambada (orange petal)): violet/purple
Color at cut edge after incubation with malvidin ([4]; rose cultivar Toplesse (pink petal)): violet/purple
COLOR ([1]; pH 4.6): violet-blue
COLOR ([1]; pH 4.9): violet-blue
RHSCC# ([1]; pH 4.9): 90A
